Test: xn = mol fraction of the nth substance listed

CCCC[P+](CCCC)(CCCC)CCCC.F[B-](F)(F)F + CC#N + C1COCO1
298.15 K, 100 kPa
Details	viscosity [mPa·s]
x1 = 0.0005495, x2 = 0.8436	0.41
x1 = 0.0005755, x2 = 0.6431	0.471
x1 = 0.0006287, x2 = 0.3754	0.532
x1 = 0.0008217, x2 = 0.8434	0.414
x1 = 0.0008656, x2 = 0.6429	0.476
x1 = 0.0009366, x2 = 0.3753	0.537
x1 = 0.001098, x2 = 0.8432	0.418
x1 = 0.001156, x2 = 0.6427	0.481
x1 = 0.00125, x2 = 0.3751	0.543
x1 = 0.001375, x2 = 0.8429	0.422
x1 = 0.001445, x2 = 0.6425	0.486
x1 = 0.001564, x2 = 0.375	0.548
x1 = 0.001651, x2 = 0.8427	0.426
x1 = 0.00174, x2 = 0.6423	0.491
x1 = 0.001878, x2 = 0.3749	0.554
x1 = 0.001927, x2 = 0.8425	0.43
x1 = 0.00203, x2 = 0.6421	0.496
x1 = 0.002191, x2 = 0.3748	0.56

C[P+](c1ccccc1)(c1ccccc1)c1ccccc1.[Br-] + CC(=O)O
Details	viscosity [mPa·s]
298.2 K, 101 kPa, x1 = 0.2	74.5

CC(=O)[O-].[NH4+] + CC(=O)[O-].CC[n+]1ccn(C)c1
101 kPa
Details	electrical conductivity [S/m]	viscosity [mPa·s]
298.15 K, x1 = 0.4491	0.0734	1020
308.15 K, x1 = 0.328	0.215	273
308.15 K, x1 = 0.4491	0.148	458
313.15 K, x1 = 0.0999	0.494	76.2
313.15 K, x1 = 0.1703	0.41	101.3
313.15 K, x1 = 0.328	0.286	197
318.15 K, x1 = 0.2498	0.449	106.6
318.15 K, x1 = 0.328	0.371	144.6

CC(=O)[O-].[Na+] + CC(=O)[O-].CC[n+]1ccn(C)c1
303.15 K, 101 kPa, x1 = 0.1001
Details	electrical conductivity [S/m]	viscosity [mPa·s]
–	0.252	147.4

Reference: the CheMixHub ionic liquid set
